Several values for one entry are separate records, joined by “and”; a condition that tells them apart may be missing. Identical values can stand only once. Inconclusive results and toxic doses are left out. Rule for the calls: active = survival T/C of 150% or more; inactive = T/C below 125% in these data.
Test system: P388 leukemia ip, CD2F1 mice, survival T/C
Test: NCI In Vivo Anticancer Drug Screen. Data for tumor model P388 Leukemia (intraperitoneal) in CD2F1 (CDF1) mice
Conditions: endpoint: median survival time, higher = longer survival
Outline: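 Mice carrying the transplanted tumor received test compound or vehicle. Survival was recorded in each group, and the value is the treated-group measurement divided by that of the vehicle-treated control group.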

[1] = dose: 50.0 mg/kg/injection, schedule: Q01DX005 (ip), vehicle: saline with Tween-80
[2] = dose: 50.0 mg/kg/injection, schedule: Q01DX009 (ip), vehicle: saline
[3] = dose: 100.0 mg/kg/injection, schedule: Q01DX009 (ip), vehicle: saline
[4] = dose: 200.0 mg/kg/injection, schedule: Q01DX009 (ip), vehicle: saline
[5] = dose: 50.0 mg/kg/injection, schedule: Q01DX009 (ip), vehicle: saline with Tween-80
[6] = dose: 100.0 mg/kg/injection, schedule: Q01DX009 (ip), vehicle: saline with Tween-80
[7] = dose: 200.0 mg/kg/injection, schedule: Q01DX009 (ip), vehicle: saline with Tween-80
[8] = dose: 3.12 mg/kg/injection, schedule: Q01DX009 (ip), vehicle: saline with Tween-80
[9] = dose: 6.25 mg/kg/injection, schedule: Q01DX009 (ip), vehicle: saline with Tween-80
[10] = dose: 12.5 mg/kg/injection, schedule: Q01DX009 (ip), vehicle: saline with Tween-80
[11] = dose: 25.0 mg/kg/injection, schedule: Q01DX009 (ip), vehicle: saline with Tween-80
[12] = dose: 50.0 mg/kg/injection, schedule: Q01DX009 (ip), vehicle: Klucel (hydroxypropylcellulose) (HPC)
[13] = dose: 100.0 mg/kg/injection, schedule: Q01DX009 (ip), vehicle: Klucel (hydroxypropylcellulose) (HPC)
[14] = dose: 200.0 mg/kg/injection, schedule: Q01DX009 (ip), vehicle: Klucel (hydroxypropylcellulose) (HPC)
[15] = dose: 12.5 mg/kg/injection, schedule: Q01DX005 (ip), vehicle: Klucel (hydroxypropylcellulose) (HPC)
[16] = dose: 25.0 mg/kg/injection, schedule: Q01DX005 (ip), vehicle: Klucel (hydroxypropylcellulose) (HPC)
[17] = dose: 50.0 mg/kg/injection, schedule: Q01DX005 (ip), vehicle: Klucel (hydroxypropylcellulose) (HPC)
[18] = dose: 100.0 mg/kg/injection, schedule: Q01DX005 (ip), vehicle: Klucel (hydroxypropylcellulose) (HPC)
[19] = dose: 200.0 mg/kg/injection, schedule: Q01DX005 (ip), vehicle: Klucel (hydroxypropylcellulose) (HPC)
[20] = dose: 60.0 mg/kg/injection, schedule: Q01DX005 (ip), vehicle: saline with Tween-80
[21] = dose: 120.0 mg/kg/injection, schedule: Q01DX005 (ip), vehicle: saline with Tween-80
[22] = dose: 240.0 mg/kg/injection, schedule: Q01DX005 (ip), vehicle: saline with Tween-80
[23] = dose: 12.5 mg/kg/injection, schedule: Q01DX009 (ip), vehicle: saline
[24] = dose: 25.0 mg/kg/injection, schedule: Q01DX009 (ip), vehicle: saline

Measured: T/C

Fc1ccc(NC(=S)SCc2ccc3c(c2)OCO3)cc1
inactive: dose: 50.0 mg/kg/injection, schedule: Q01DX009 (ip), vehicle: suspension in saline 101 % of control | dose: 100.0 mg/kg/injection, schedule: Q01DX009 (ip), vehicle: suspension in saline 101 % of control | dose: 200.0 mg/kg/injection, schedule: Q01DX009 (ip), vehicle: suspension in saline 116 % of control

COc1ccc(-c2nc3c(=O)[nH]c(=O)n(C)c3nc2-c2ccc(OC)c(OC)c2)cc1OC
inactive: dose: 100.0 mg/kg/injection, schedule: Q04DX002 (ip), vehicle: Klucel (hydroxypropylcellulose) (HPC) 97 % of control | dose: 200.0 mg/kg/injection, schedule: Q04DX002 (ip), vehicle: Klucel (hydroxypropylcellulose) (HPC) 100 % of control | dose: 400.0 mg/kg/injection, schedule: Q04DX002 (ip), vehicle: Klucel (hydroxypropylcellulose) (HPC) 100 % of control

S=c1ncnc2cc3[nH][nH]cc3cc12
inactive: [1] 90 % of control | dose: 100.0 mg/kg/injection, schedule: Q01DX005 (ip), vehicle: saline with Tween-80 86 % of control | dose: 200.0 mg/kg/injection, schedule: Q01DX005 (ip), vehicle: saline with Tween-80 92 % of control

CC(=O)c1ccc(OCc2ccccc2)cc1OCc1ccccc1
inactive: [2] 97 % of control | [3] 100 % of control | [4] 98 % of control

CCCCCCC(C)NN (configuration not stated)
inactive: dose: 100.0 mg/kg/injection, schedule: Q04DX003 (ip), vehicle: saline with Tween-80 86 % of control

COc1cc2c(cc1OC)C(C)C1c3cc4c(cc3CCN1C2)OCO4 (configuration not stated)
inactive: dose: 50.0 mg/kg/injection, schedule: Q04DX003 (ip), vehicle: distilled water + Tween-80 103 % of control and 100 % of control | dose: 100.0 mg/kg/injection, schedule: Q04DX003 (ip), vehicle: distilled water + Tween-80 97 % of control and 103 % of control | dose: 200.0 mg/kg/injection, schedule: Q04DX003 (ip), vehicle: distilled water + Tween-80 99 % of control and 103 % of control | dose: 400.0 mg/kg/injection, schedule: Q04DX003 (ip), vehicle: distilled water + Tween-80 103 % of control

O=C(Nc1cccc2ccccc12)NN1C(=O)CSC1=S
inactive: [5] 90 % of control | [6] 93 % of control | [7] 91 % of control

c1ccc(Cn2c(-c3ccccc3)c[n+]3ccsc23)cc1
inactive: [8] 117 % of control | [9] 115 % of control and 94 % of control | [10] 108 % of control and 117 % of control

CCCCCCC[CH2][Sn]([CH2]CCCCCCC)([S]CC(=O)OCCCC)[S]CC(=O)OCCCC
inactive: [2] 99 % of control | [3] 92 % of control and 95 % of control | [4] 92 % of control and 94 % of control

CCOC(=O)CC(=O)OC(C)(C)C
inactive: [11] 97 % of control | [5] 106 % of control | [6] 104 % of control | [7] 100 % of control

CN(C)CCC(CCc1ccccc1)OC(=O)c1ccc([N+](=O)[O-])cc1 (configuration not stated)
inactive: dose: 50.0 mg/kg/injection, schedule: Q04DX002 (ip), vehicle: saline 102 % of control | dose: 100.0 mg/kg/injection, schedule: Q04DX002 (ip), vehicle: saline 107 % of control

CCc1ccccc1NC(=O)C(=O)CC(=O)c1ccc(Cl)s1
inactive: dose: 100.0 mg/kg/injection, schedule: Q04DX002 (ip), vehicle: saline with Tween-80 100 % of control | dose: 200.0 mg/kg/injection, schedule: Q04DX002 (ip), vehicle: saline with Tween-80 102 % of control | dose: 400.0 mg/kg/injection, schedule: Q04DX002 (ip), vehicle: saline with Tween-80 103 % of control

CCOC(=O)C(=CNc1cc(C(F)(F)F)ccc1N1CCOCC1)C(=O)OCC
inactive: [12] 97 % of control | [13] 100 % of control | [14] 100 % of control

Cn1c2ccccc2c2cnn3cnnc3c21
inactive: dose: 50.0 mg/kg/injection, schedule: Q01DX001 (ip), vehicle: Klucel (hydroxypropylcellulose) (HPC) 91 % of control | dose: 100.0 mg/kg/injection, schedule: Q01DX001 (ip), vehicle: Klucel (hydroxypropylcellulose) (HPC) 88 % of control | dose: 200.0 mg/kg/injection, schedule: Q01DX001 (ip), vehicle: Klucel (hydroxypropylcellulose) (HPC) 96 % of control

CCN(CC)Cc1cc(N=Nc2ccc([N+](=O)[O-])c(OC)c2)c2ccccc2c1O
inactive: [12] 99 % of control | [13] 95 % of control | [14] 97 % of control

C=C1C(=O)O[C@@H]2C[C@H](C)[C@@H]3CC[C@H](O)[C@@]3(CO)C[C@H]12
inactive: [15] 102 % of control | [16] 102 % of control | [17] 103 % of control and 104 % of control | [18] 114 % of control | [19] 122 % of control

CSc1nc2ccc(N=Cc3ccc([N+](=O)[O-])cc3)cc2s1
inactive: [12] 98 % of control | [13] 86 % of control | [14] 87 % of control and 92 % of control

N#CC(C(=O)CCCC(=O)Nc1ccccc1[N+](=O)[O-])c1ccc(Cl)cc1Cl (configuration not stated)
inactive: [20] 106 % of control | [21] 104 % of control | [22] 101 % of control

COc1cc(OC)c(OC)cc1/C=C\c1ccc2ccccc2[n+]1C
inactive: [8] 105 % of control | [9] 110 % of control | [10] 111 % of control and 122 % of control | [11] 123 % of control

CC(=O)Oc1ccc(OCc2ccccc2)c(OCc2ccccc2)c1
inactive: [5] 102 % of control | [6] 99 % of control | [7] 107 % of control

O=C1C=C(Cl)C(=O)C(c2ccccc2)=C1Cl
inactive: [15] 96 % of control | [16] 91 % of control

Nc1nc(-c2ccc(Cl)c(Cl)c2)cc(-c2cc(-c3ccc(Cl)c(Cl)c3)nc(N)n2)n1
inactive: [20] 96 % of control | [21] 95 % of control | [22] 95 % of control

CN1C=CC=CC1=C1C(=O)c2ccccc2C1=O
inactive: [17] 96 % of control | [18] 104 % of control | [19] 107 % of control

CCCCN1C(=O)/C(=C/c2ccco2)SC1=S
inactive: [5] 101 % of control | [6] 104 % of control | [7] 102 % of control

Cn1nc[n+](C)n1
inactive: [23] 91 % of control | [24] 91 % of control

CC(=O)NC1CC(C)(C)NC(C)(C)C1
inactive: [23] 100 % of control | [24] 96 % of control | [2] 114 % of control and 88 % of control | [4] 95 % of control

CC(=O)Oc1ccc(OC(C)=O)c2c(OC(C)=O)c(C(CC=C(C)C)OC(C)=O)cc(OC(C)=O)c12 (configuration not stated)
inactive: dose: 12.5 mg/kg/injection, schedule: Q04DX002 (ip), vehicle: saline with Tween-80 108 % of control | dose: 25.0 mg/kg/injection, schedule: Q04DX002 (ip), vehicle: saline with Tween-80 117 % of control

Cc1ccc(C(=O)OC(C(=O)O)C(OC(=O)c2ccc(C)cc2)C(=O)O)cc1 (configuration not stated) (tested in a mixture with another compound)
inactive: dose: 5.25 mg/kg/injection, schedule: Q01DX005 (ip), vehicle: Klucel (hydroxypropylcellulose) (HPC) 105 % of control | dose: 10.5 mg/kg/injection, schedule: Q01DX005 (ip), vehicle: Klucel (hydroxypropylcellulose) (HPC) 107 % of control | dose: 21.0 mg/kg/injection, schedule: Q01DX005 (ip), vehicle: Klucel (hydroxypropylcellulose) (HPC) 105 % of control | dose: 42.0 mg/kg/injection, schedule: Q01DX005 (ip), vehicle: Klucel (hydroxypropylcellulose) (HPC) 100 % of control

C=C1C(=O)C[C@H]2[C@H]3CC[C@H](C(=O)O)[C@]12CC3(C)C
inactive: dose: 7.5 mg/kg/injection, schedule: Q01DX005 (ip), vehicle: Klucel (hydroxypropylcellulose) (HPC) 119 % of control | dose: 15.0 mg/kg/injection, schedule: Q01DX005 (ip), vehicle: Klucel (hydroxypropylcellulose) (HPC) 113 % of control | dose: 30.0 mg/kg/injection, schedule: Q01DX005 (ip), vehicle: Klucel (hydroxypropylcellulose) (HPC) 119 % of control | dose: 31.5 mg/kg/injection, schedule: Q01DX005 (ip), vehicle: Klucel (hydroxypropylcellulose) (HPC) 111 % of control

CC(C)(C)C1=CCN(C(C)(C)/C=N\O)CC1
inactive: dose: 12.5 mg/kg/injection, schedule: Q01DX005 (ip), vehicle: saline with Tween-80 97 % of control | dose: 25.0 mg/kg/injection, schedule: Q01DX005 (ip), vehicle: saline with Tween-80 100 % of control | [1] 100 % of control and 96 % of control

From PubChem BioAssay AID330 (DTP/NCI, 2004)
